Measurements as given in PubChem BioAssay (NCI).
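These data come from cells grown in 96-well plates and exposed to compound for 48 hours at five concentrations. At the GI50, growth is halved. TGI is the concentration that stops growth completely.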

Legend:
Experiment in all cases: DTP human tumour cell line panel, 48 h
HCC-2998 colon = test system: HCC-2998 colon
SK-MEL-5 melanoma = test system: SK-MEL-5 melanoma
PC-3 prostate = test system: PC-3 prostate
NCI-H226 lung = test system: NCI-H226 lung
SF-295 CNS = test system: SF-295 CNS
T-47D breast = test system: T-47D breast
COLO 205 colon = test system: COLO 205 colon
HCT-116 colon = test system: HCT-116 colon
HS 578T breast = test system: HS 578T breast
UACC-257 melanoma = test system: UACC-257 melanoma
MALME-3M melanoma = test system: MALME-3M melanoma
MOLT-4 leukemia = test system: MOLT-4 leukemia
OVCAR-5 ovarian = test system: OVCAR-5 ovarian
SK-MEL-2 melanoma = test system: SK-MEL-2 melanoma
SR leukemia = test system: SR leukemia
CCRF-CEM leukemia = test system: CCRF-CEM leukemia
OVCAR-4 ovarian = test system: OVCAR-4 ovarian
SF-539 CNS = test system: SF-539 CNS
NCI/ADR-RES ovarian = test system: NCI/ADR-RES ovarian
786-0 renal = test system: 786-0 renal
SK-MEL-28 melanoma = test system: SK-MEL-28 melanoma
SW-620 colon = test system: SW-620 colon
HCT-15 colon = test system: HCT-15 colon
HT29 colon = test system: HT29 colon
SK-OV-3 ovarian = test system: SK-OV-3 ovarian
BT-549 breast = test system: BT-549 breast
LOX IMVI melanoma = test system: LOX IMVI melanoma
OVCAR-8 ovarian = test system: OVCAR-8 ovarian
KM12 colon = test system: KM12 colon
NCI-H522 lung = test system: NCI-H522 lung
HL-60(TB) leukemia = test system: HL-60(TB) leukemia
TK-10 renal = test system: TK-10 renal
UACC-62 melanoma = test system: UACC-62 melanoma
HOP-62 NSCLC = test system: HOP-62 NSCLC
M14 melanoma = test system: M14 melanoma
UO-31 renal = test system: UO-31 renal
DU-145 prostate = test system: DU-145 prostate
ACHN renal = test system: ACHN renal
NCI-H23 lung = test system: NCI-H23 lung
SF-268 CNS = test system: SF-268 CNS
NCI-H460 lung = test system: NCI-H460 lung
RPMI-8226 leukemia = test system: RPMI-8226 leukemia
U251 CNS = test system: U251 CNS
EKVX NSCLC = test system: EKVX NSCLC
IGROV1 ovarian = test system: IGROV1 ovarian
OVCAR-3 ovarian = test system: OVCAR-3 ovarian
MDA-MB-435 = test system: MDA-MB-435
SNB-75 CNS = test system: SNB-75 CNS
SNB-19 CNS = test system: SNB-19 CNS
A498 renal = test system: A498 renal
SN12C renal = test system: SN12C renal
CAKI-1 renal = test system: CAKI-1 renal
K-562 leukemia = test system: K-562 leukemia
A549 NSCLC = test system: A549 NSCLC
MCF7 breast = test system: MCF7 breast
MDA-MB-231 breast = test system: MDA-MB-231 breast
RXF 393 renal = test system: RXF 393 renal

`COC(=O)c1cc2cc(-c3ccc(OC)cc3)cnc2[nH]1` gave a GI50 (HCC-2998 colon) of 2.34 µM, a TGI (HCC-2998 colon) of 18.9 µM and a GI50 (SK-MEL-5 melanoma) of 0.922 µM. It also gave a TGI (SK-MEL-5 melanoma) of 15.8 µM, a GI50 (PC-3 prostate) of 1.26 µM and a TGI (PC-3 prostate) of 15 µM. It also gave a GI50 (NCI-H226 lung) of 9.15 µM, a TGI (NCI-H226 lung) of 57.3 µM and a GI50 (SF-295 CNS) of 1.32 µM. The TGI (SF-295 CNS) was 11.4 µM, the GI50 (T-47D breast) was 0.726 µM and the TGI (T-47D breast) was greater than 100 µM. The GI50 (COLO 205 colon) was 0.774 µM, the GI50 (HCT-116 colon) was 0.39 µM and the TGI (HCT-116 colon) was 11.7 µM. It also gave a TGI (HS 578T breast) greater than 30.3 µM, a GI50 (UACC-257 melanoma) of 7.35 µM and a TGI (UACC-257 melanoma) greater than 100 µM. The GI50 (MALME-3M melanoma) was 2.87 µM, the TGI (MALME-3M melanoma) was 37.9 µM and the GI50 (MOLT-4 leukemia) was 1.06 µM. It also gave a TGI (MOLT-4 leukemia) greater than 100 µM, a GI50 (OVCAR-5 ovarian) of 11.3 µM and a TGI (OVCAR-5 ovarian) of 73.7 µM. For the same molecule, the GI50 (SK-MEL-2 melanoma) was 2.76 µM, the TGI (SK-MEL-2 melanoma) was greater than 67.3 µM and the GI50 (SR leukemia) was 0.286 µM. It also gave a TGI (SR leukemia) of 21.1 µM, a GI50 (CCRF-CEM leukemia) of 2.61 µM and a TGI (CCRF-CEM leukemia) greater than 100 µM. It also gave a GI50 (OVCAR-4 ovarian) of 3.47 µM, a TGI (OVCAR-4 ovarian) greater than 100 µM and a GI50 (SF-539 CNS) of 1.11 µM. It also gave a TGI (SF-539 CNS) of 3.79 µM, a GI50 (NCI/ADR-RES ovarian) of 0.36 µM and a TGI (NCI/ADR-RES ovarian) of 3.41 µM. It also gave a GI50 (786-0 renal) of 1.64 µM, a TGI (786-0 renal) of 14.6 µM and a GI50 (SK-MEL-28 melanoma) of 6.27 µM. For the same molecule, the TGI (SK-MEL-28 melanoma) was greater than 100 µM, the GI50 (SW-620 colon) was 0.389 µM and the TGI (SW-620 colon) was greater than 100 µM. The GI50 (HCT-15 colon) was 0.6 µM, the TGI (HCT-15 colon) was greater than 100 µM and the GI50 (HT29 colon) was 0.399 µM. The TGI (HT29 colon) was 23.4 µM, the GI50 (SK-OV-3 ovarian) was 2.35 µM and the TGI (SK-OV-3 ovarian) was 12.9 µM. It also gave a GI50 (BT-549 breast) of 1.08 µM, a TGI (BT-549 breast) greater than 32.2 µM and a GI50 (LOX IMVI melanoma) of 2.19 µM. It also gave a TGI (LOX IMVI melanoma) greater than 100 µM, a GI50 (OVCAR-8 ovarian) of 1.52 µM and a TGI (OVCAR-8 ovarian) of 16.4 µM. The GI50 (KM12 colon) was 0.418 µM, the TGI (KM12 colon) was 12.9 µM and the GI50 (NCI-H522 lung) was 0.767 µM. The TGI (NCI-H522 lung) was 5.48 µM, the GI50 (HL-60(TB) leukemia) was 0.767 µM and the TGI (HL-60(TB) leukemia) was greater than 28.1 µM. For the same molecule, the GI50 (TK-10 renal) was 4.26 µM, the TGI (TK-10 renal) was 21.8 µM and the GI50 (UACC-62 melanoma) was 1.88 µM. It also gave a TGI (UACC-62 melanoma) greater than 70.1 µM, a GI50 (HOP-62 NSCLC) of 2.95 µM and a TGI (HOP-62 NSCLC) of 21.2 µM. The GI50 (M14 melanoma) was 0.511 µM, the TGI (M14 melanoma) was 7.52 µM and the GI50 (UO-31 renal) was 4.06 µM. The TGI (UO-31 renal) was 24.1 µM, the GI50 (DU-145 prostate) was 2.6 µM and the TGI (DU-145 prostate) was 16 µM. The GI50 (ACHN renal) was 7.77 µM, the TGI (ACHN renal) was 57.1 µM and the GI50 (NCI-H23 lung) was 3.33 µM. For the same molecule, the TGI (NCI-H23 lung) was 24.1 µM, the GI50 (SF-268 CNS) was 2.05 µM and the TGI (SF-268 CNS) was 27.7 µM. For the same molecule, the GI50 (NCI-H460 lung) was 0.565 µM, the TGI (NCI-H460 lung) was 11.6 µM and the GI50 (RPMI-8226 leukemia) was 1.29 µM. It also gave a TGI (RPMI-8226 leukemia) greater than 28 µM, a GI50 (U251 CNS) of 0.857 µM and a TGI (U251 CNS) of 16.6 µM. It also gave a GI50 (EKVX NSCLC) of 5.87 µM, a TGI (EKVX NSCLC) greater than 100 µM and a GI50 (IGROV1 ovarian) of 0.439 µM. The TGI (IGROV1 ovarian) was 2.77 µM, the GI50 (OVCAR-3 ovarian) was 0.359 µM and the TGI (OVCAR-3 ovarian) was 1.19 µM. For the same molecule, the GI50 (MDA-MB-435) was 0.227 µM, the TGI (MDA-MB-435) was 0.666 µM and the GI50 (SNB-75 CNS) was 1.68 µM. It also gave a TGI (SNB-75 CNS) of 21.3 µM, a GI50 (SNB-19 CNS) of 2.27 µM and a TGI (SNB-19 CNS) greater than 64.7 µM. The GI50 (A498 renal) was 1.63 µM, the TGI (A498 renal) was 14.3 µM and the GI50 (SN12C renal) was 5.73 µM. For the same molecule, the TGI (SN12C renal) was greater than 51.6 µM, the GI50 (CAKI-1 renal) was 2.28 µM and the TGI (CAKI-1 renal) was greater than 38.9 µM. It also gave a GI50 (K-562 leukemia) of 0.427 µM, a TGI (K-562 leukemia) greater than 100 µM and a GI50 (A549 NSCLC) of 1.13 µM. The TGI (A549 NSCLC) was 40.3 µM, the GI50 (MCF7 breast) was 0.452 µM and the TGI (MCF7 breast) was greater than 100 µM. For the same molecule, the GI50 (MDA-MB-231 breast) was 4.11 µM, the TGI (MDA-MB-231 breast) was 31.2 µM and the GI50 (RXF 393 renal) was 1.85 µM. For the same molecule, the TGI (RXF 393 renal) was 5.96 µM.
